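1) Cells in 96-well plates. 2) Compound, 48 h, 5 concentrations. 3) Linear interpolation between surrounding doses. 4) Unreached endpoint = highest concentration. GI50 marks 50% less growth. TGI: total growth inhibition.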
Key:
Experiment in all cases: NCI-60 cell line screen, 48 h
HCT-116 colon = tested on: HCT-116 colon
IGROV1 ovarian = tested on: IGROV1 ovarian
MALME-3M melanoma = tested on: MALME-3M melanoma
MDA-MB-435 = tested on: MDA-MB-435
NCI-H23 lung = tested on: NCI-H23 lung
NCI-H522 lung = tested on: NCI-H522 lung
NCI/ADR-RES ovarian = tested on: NCI/ADR-RES ovarian
PC-3 prostate = tested on: PC-3 prostate
DMS 273 small cell lung = tested on: DMS 273 small cell lung
HOP-18 NSCLC = tested on: HOP-18 NSCLC
LXFL 529 NSCLC = tested on: LXFL 529 NSCLC
SNB-78 CNS = tested on: SNB-78 CNS

SMILES | TGI (HCT-116 colon) | TGI (IGROV1 ovarian) | TGI (MALME-3M melanoma) | TGI (MDA-MB-435) | TGI (NCI-H23 lung) | TGI (NCI-H522 lung) | TGI (NCI/ADR-RES ovarian) | TGI (PC-3 prostate) | TGI (DMS 273 small cell lung) | TGI (HOP-18 NSCLC) | TGI (LXFL 529 NSCLC) | TGI (SNB-78 CNS) | GI50 (NCI-H23 lung) | GI50 (NCI-H522 lung)
CC1(C)O[C@@H]2[C@@H]3OC(=O)C[C@@H]3[C@@H](COCc3ccccc3)[C@@H]2O1 | > 100 µM | > 100 µM | > 100 µM | > 100 µM | > 100 µM | > 100 µM | > 100 µM | > 100 µM |  |  |  |  |  | 
O=c1[nH]c(=O)n(C2CC(O)C(CO)O2)cc1C#Cc1cc(F)cc(F)c1 (stereo not drawn) |  | > 100 µM | > 100 µM |  | > 100 µM | > 100 µM |  |  | > 100 µM | 83.2 µM | > 100 µM | > 100 µM |  | 
O=C(O)c1cc(Sc2ccc([N+](=O)[O-])c(C(=O)O)c2)ccc1[N+](=O)[O-] | > 100 µM | > 100 µM | > 78.9 µM | > 100 µM | > 100 µM | > 100 µM | > 100 µM | > 100 µM |  |  |  |  | > 100 µM | > 100 µM
Cc1nc2c(ncn2CCO)c(=O)[nH]1 | > 100 µM | > 100 µM | > 100 µM | > 100 µM | > 100 µM | > 100 µM | > 100 µM | > 100 µM |  |  |  |  |  | 
CC1CCC23COC(=O)C2C(O)CCC3C1(C)CC(O)c1ccoc1 (stereo not drawn) | > 100 µM | > 100 µM | > 100 µM |  | > 100 µM | > 100 µM |  |  |  | > 100 µM | > 100 µM | > 100 µM |  | 
CC(NC(=O)C(N)CC(=O)O)NC(=O)N1CCCC1 (stereo not drawn) | > 100 µM | > 100 µM | > 100 µM | > 100 µM | > 100 µM | > 100 µM | > 100 µM | > 100 µM |  |  |  |  |  | 
COc1ccc(-c2nnc(CCCCCCCCc3nnc(-c4ccc(OC)cc4)o3)o2)cc1 | > 100 µM | > 100 µM | > 100 µM | > 100 µM | > 100 µM | > 100 µM | > 100 µM | > 100 µM |  |  |  |  |  | 
OCSc1nn(CO)c(=S)s1 | 55.4 µM | 47.8 µM | 44.8 µM | 34.3 µM | 40.5 µM | 35.3 µM | 45.1 µM | 59.6 µM |  |  |  |  |  | 
CCCCCC(/C=N/N)C(O)(C(F)(F)F)C(F)(F)F (stereo not drawn) | 9.02 µM | > 10 µM | 6.69 µM | > 10 µM | 9.49 µM | > 10 µM | > 10 µM | 6.82 µM |  |  |  |  |  | 
COC(Cc1ccccc1)NC(C)=O (stereo not drawn) | > 100 µM | > 100 µM | > 100 µM | > 100 µM | > 100 µM | > 100 µM | > 100 µM | > 100 µM |  |  |  |  |  | 
COC1(C)C=NCC(C)(C)NC(=O)C(C)(OC)C=NCC(C)(C)NC1=O (stereo not drawn) | > 10 µM | > 10 µM | > 10 µM | > 10 µM | > 10 µM | > 10 µM | > 10 µM | > 10 µM |  |  |  |  |  | 
Nc1ccc(N)c2c1C(=O)c1c(N)ccc(N)c1C2=O | > 100 µM | > 100 µM | > 100 µM |  | > 100 µM | > 89.3 µM |  |  | > 100 µM | 64.7 µM |  | > 100 µM |  | 
CC1(C)CC[C@]2(C(=O)O)CC[C@]3(C)C(=CC[C@@H]4[C@@]5(C)CC[C@H](OC6OC(CO)C(O)C(O)C6OC6OC(CO)C(O)C(O)C6O)C(C)(C)[C@@H]5CC[C@]43C)[C@@H]2C1 (stereo partly drawn) | 31.9 µM | 34.6 µM | 30.1 µM | 35.7 µM | 53.7 µM | 38 µM | 49.2 µM | 31.2 µM |  |  |  |  |  | 
COC(=O)c1scc(N)c1-n1ccc(=O)[nH]c1=O | > 100 µM | > 100 µM | > 100 µM | > 100 µM | > 100 µM | > 100 µM | > 100 µM | > 100 µM |  |  |  |  |  | 
S=C1SC(c2ccc(Cl)cc2)(c2ccc(Cl)cc2)c2ccccc21 | > 100 µM | > 100 µM | > 100 µM | > 100 µM | > 100 µM | > 100 µM | > 100 µM | > 100 µM |  |  |  |  |  | 
CC(=O)O[C@H]1[C@@H](N2CCN(C)CC2)C[C@H]2[C@@H]3CC=C4C[C@@H](N5CCCC5)CC[C@]4(C)[C@H]3CC[C@@]21C | > 100 µM | > 100 µM | 51 µM | > 100 µM | > 100 µM | > 100 µM | > 100 µM | > 100 µM |  |  |  |  |  | 
COc1cc2c(cc1O)C(C)Cc1cc3c(cc1N(C)CC2)OCO3 (stereo not drawn) | > 35.2 µM | 73.3 µM | 20.1 µM |  | 20.3 µM | 4.94 µM |  |  | 13 µM | 90.9 µM | > 95.6 µM | 42.3 µM |  | 
Cc1cc(-c2ccccc2)cc2[n+]1CC=C2 | > 100 µM |  | > 100 µM |  | > 100 µM | > 100 µM |  |  | > 100 µM |  | > 100 µM | > 100 µM |  | 
CCNc1ncnc2n[nH]nc12 | > 100 µM | > 100 µM | > 100 µM | > 100 µM | > 100 µM | > 100 µM | > 100 µM | > 100 µM |  |  |  |  |  | 
CCOC1SC(SC)=NN1C(=O)C(OC(C)=O)C(OC(C)=O)C(OC(C)=O)C(OC(C)=O)C(=O)N1N=C(SC)SC1OCC (stereo not drawn) | > 100 µM | > 100 µM | > 100 µM | > 100 µM | > 100 µM | > 100 µM | > 100 µM | > 100 µM |  |  |  |  |  | 
Cc1c2cccc-2c(OCCO)cc2c1[nH]c1ccccc12 | > 23.2 µM | 8.92 µM | 3.49 µM | 15.8 µM | 12.3 µM | 5.38 µM | > 23.4 µM | 7.89 µM |  |  |  |  |  | 
CC1(C)C2CCC1(CC(=O)O)C(Cl)C2 (stereo not drawn) | > 100 µM | > 100 µM | > 100 µM | > 100 µM | > 100 µM | > 100 µM | > 100 µM | > 100 µM |  |  |  |  |  | 

— PubChem BioAssay (NCI)
